Source: patent US20260207645A1, “USE OF INTEGRIN A5B1 AS TARGET IN SCREENING OF DRUGS FOR PREVENTING AND/OR TREATING BONE LOSS” (The Hong Kong Polytechnic University, priority 2023, published 2026)
One block for each molecule: values may come before it.

Experiments:
BMSCs = assay: F-actin cytoskeleton (phalloidin staining, confocal) in BMSCs under microgravity; format: cell-based; details: microgravity 3 days
Procedure: Testing procedure: BMSCs were cultured in osteogenic medium. […] The representative images were captured at mid-plane of the cells and visualized using a confocal laser scanning microscope (magnification: 400×, scale bar: 25 μm). Hoechst counter-staining (blue; DAPI) was applied for determination of single cells.

integrin α5β1 = target: T1, integrin α5β1 (Homo sapiens, UniProt P05556+P08648); assay: competitive solid-phase binding ELISA (soluble integrin α5β1 vs coated fibronectin); details: fibronectin-coated plate, soluble integrin α5β1 1.0 μg/ml; read-out: IC50 for competing with fibronectin bound on integrin α5β1
T1 construct: Soluble integrin α5β1 (1.0 μg/ml) (R&D Systems, MN, USA); purchased R&D Systems

differentiated BMSCs = assay: quantitative analysis of differentiation activity (ALP, RhoA, Rac1) of BMSCs under normal gravity and microgravity; format: cell-based; details: microgravity
Procedure: Testing procedure: BMSCs were cultured in osteogenic medium. […] The representative images were captured at mid-plane of the cells and visualized using a confocal laser scanning microscope (magnification: 400×, scale bar: 25 μm). Hoechst counter-staining (blue; DAPI) was applied for determination of single cells. […] The quantitative analysis of the differentiation activity of BMSCs under normal gravity and microgravity is shown in FIG. 6, where FIG. 6a is the ALP activity analysis relative to the positive control group, FIG. 6b is the RhoA activity analysis in total protein, and FIG. 6c is the Rac1 activity analysis in total protein. The data in FIGS. 6a, 6b, and 6c are presented as mean values±SEM. Statistical analysis was performed using one-way […]<0.001; versus control: *p<0.05, ###p<0.001 (n=3).

[1] = growth factor, concentration not given

Molecule: C[C@]12CC[C@@H]3c4ccc(O)cc4CC[C@H]3[C@@H]1CC[C@@H]2O [E2, reference compound]
F-actin polymerization (BMSCs; [1]): not

IC50 (integrin α5β1): 7.6 ± 3.92 nM
Molecule: CC(C)=CCc1c(O)cc(O)c2c1O[C@H](c1ccc(O)cc1)CC2=O [8-prenylnaringenin]

IC50 (integrin α5β1): 390 ± 280 nM
Molecule: CC(C)=CCc1c(O)cc(O)c2c(=O)c(-c3ccc(O)cc3)coc12 [8-prenylgenistein]

Molecule: COc1ccc(-c2oc3c(CC=C(C)C)c(O[C@@H]4O[C@H](CO)[C@@H](O)[C@H](O)[C@H]4O)cc(O)c3c(=O)c2O[C@@H]2O[C@@H](C)[C@H](O)[C@@H](O)[C@H]2O)cc1 [icariin]
F-actin polymerization (BMSCs; 10 nM): stimulated F-actin polymerization
F-actin polymerization (BMSCs; 0.1 μM): stimulated F-actin polymerization
ALP activity (differentiated BMSCs; differentiated BMSCs): significantly increase
Rac1 activity (differentiated BMSCs; differentiated BMSCs): significantly increase
RhoA activity (differentiated BMSCs; differentiated BMSCs): significantly increase
differentiation of BMSCs (differentiated BMSCs; 10 nM): restore the differentiation
differentiation of BMSCs (differentiated BMSCs; 100 nM): restore the differentiation

Molecule: IGF-1: growth factor, positive control
F-actin polymerization (BMSCs; [1]): stimulated F-actin polymerization
